The record followed here is ChEMBL document CHEMBL1137869 (Bioorg Med Chem Lett, 2004).

In general, IC50 refers to the point on the concentration scale where inhibition reaches its midpoint. One may read the half-life as the time needed for the level to fall by half in the phase considered. For orientation: Cmax means the peak of the concentration-time curve.

Where only a bound is given, the exact number is not on record here.

For series [1], the target named is T1, Platelet-derived growth factor receptor beta (Homo sapiens, UniProt P09619). Put plainly: In vitro inhibition of Platelet derived growth factor receptor beta autophosphorylation in MG-63 cells with 45% human plasma. The class given is cell-based.
T1 sequence (P09619 whole entry): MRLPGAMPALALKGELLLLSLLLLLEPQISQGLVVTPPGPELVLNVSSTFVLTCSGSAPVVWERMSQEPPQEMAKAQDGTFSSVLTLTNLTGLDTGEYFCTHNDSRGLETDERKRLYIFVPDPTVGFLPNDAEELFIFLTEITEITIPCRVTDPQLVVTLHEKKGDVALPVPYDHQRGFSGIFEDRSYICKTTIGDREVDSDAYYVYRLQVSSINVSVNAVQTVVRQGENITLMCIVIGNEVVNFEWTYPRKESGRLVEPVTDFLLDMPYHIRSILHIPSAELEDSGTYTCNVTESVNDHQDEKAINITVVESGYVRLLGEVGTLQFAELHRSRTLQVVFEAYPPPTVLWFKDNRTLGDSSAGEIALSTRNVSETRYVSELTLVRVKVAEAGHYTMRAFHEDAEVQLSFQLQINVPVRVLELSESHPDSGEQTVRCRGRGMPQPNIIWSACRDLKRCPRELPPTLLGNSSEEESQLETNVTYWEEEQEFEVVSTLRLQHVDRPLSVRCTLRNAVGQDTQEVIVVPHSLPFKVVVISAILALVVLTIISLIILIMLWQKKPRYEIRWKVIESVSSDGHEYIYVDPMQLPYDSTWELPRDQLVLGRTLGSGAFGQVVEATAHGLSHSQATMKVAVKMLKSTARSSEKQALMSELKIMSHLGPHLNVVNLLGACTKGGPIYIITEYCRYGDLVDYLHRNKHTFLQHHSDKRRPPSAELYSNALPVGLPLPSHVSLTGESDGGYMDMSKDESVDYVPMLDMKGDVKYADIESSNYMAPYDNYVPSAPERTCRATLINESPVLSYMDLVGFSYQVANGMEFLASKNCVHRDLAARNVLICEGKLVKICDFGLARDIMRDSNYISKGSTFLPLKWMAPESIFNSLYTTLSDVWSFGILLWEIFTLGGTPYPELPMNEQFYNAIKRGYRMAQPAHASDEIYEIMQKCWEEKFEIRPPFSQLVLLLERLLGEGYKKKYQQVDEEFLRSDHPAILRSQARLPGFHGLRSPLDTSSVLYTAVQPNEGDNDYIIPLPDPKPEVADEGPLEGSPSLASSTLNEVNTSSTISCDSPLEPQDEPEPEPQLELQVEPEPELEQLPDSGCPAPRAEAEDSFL
Series [2] addresses T1, Platelet-derived growth factor receptor beta. Put plainly: In vitro inhibition of Platelet derived growth factor receptor beta autophosphorylation in MG-63 cells without plasma. The class given is cell-based.
Series [3] can be described thus: Inhibition of PDGFR-beta/Flt-3 chimeric receptor autophosphorylation in CHO cells. The class given is cell-based.
Series [4] in a line: Inhibition of PDGFR-beta/c-Kit chimeric receptor autophosphorylation in CHO cells. Type of series: cell-based.
Series [5] addresses T1, Platelet-derived growth factor receptor beta. The series can be described thus: Inhibition of Platelet derived growth factor receptor beta autophosphorylation in CHO cells. Type of series: cell-based.
Series [6] is described as follows: Area under curve was determined in rat by peroral dose at 30 mg/kg. The class given is ADME, organism-based. On the set-up: dose 30 mg/kg, route oral. The conditions noted are these: in vivo, po.
Series [7] can be described thus: Plasma half life was determined in dog by iv/po dose at 8.09 mg/kg. Type of series: ADME, organism-based, Canis lupus familiaris. Details: dose 8.09 mg/kg.
The nature of series [8]: Plasma half life was determined in monkey by iv/po dose at 10 mg/kg. Type of series: ADME, organism-based. On the set-up: dose 10 mg/kg. To be noted: cercopithecidae.
Series [9] is described as follows: Maximum concentration was determined in rat by iv/po dose at 30 mg/kg. The class given is ADME, organism-based. On the set-up: dose 30 mg/kg. To be noted: in vivo.
Series [10] is described as follows: Maximum concentration was determined in dog by iv/po dose at 8.09 mg/kg. Type of series: ADME, organism-based, Canis lupus familiaris. On the set-up: dose 8.09 mg/kg. The conditions noted are these: in vivo.
Series [11] can be described thus: Maximum concentration was determined in monkey by iv/po dose at 10 mg/kg. To be noted: cercopithecidae, in vivo. The class given is ADME, organism-based. On the set-up: dose 10 mg/kg.
A short description of series [12]: Bioavailability in rat (dose 30 mg/kg i.v./p.o.). Type of series: ADME, organism-based. To be noted: in vivo, po.
A short description of series [13]: Percent bioavailability was determined in dog by iv/po dose at 8.09 mg/kg. The class given is ADME, organism-based, Canis lupus familiaris. To be noted: in vivo.
A short description of series [14]: Plasma half life was determined in rat by iv/po dose at 30 mg/kg. The class given is ADME, organism-based. On the set-up: dose 30 mg/kg.
Series [15] is described as follows: Maximum concentration was determined in dog by iv/po dose at 5 mg/kg. The conditions noted are these: in vivo. Type of series: ADME, organism-based, Canis lupus familiaris. Details: dose 5 mg/kg.
A short description of series [16]: Maximum concentration was determined in rat by iv/po dose at 10 mg/kg. The class given is ADME, organism-based. Details: dose 10 mg/kg. To be noted: in vivo.
Series [17] is described as follows: Area under curve was determined in dog by peroral dose at 5 mg/kg. Type of series: ADME, organism-based, Canis lupus familiaris. The conditions noted are these: in vivo, po. On the set-up: dose 5 mg/kg, route oral.
The nature of series [18]: Area under curve was determined in rat by peroral dose at 10 mg/kg. The conditions noted are these: in vivo, po. On the set-up: dose 10 mg/kg, route oral. Type of series: ADME, organism-based.
Series [19] in a line: Percent bioavailability was determined in dog by iv/po dose at 5 mg/kg. To be noted: in vivo. Type of series: ADME, organism-based, Canis lupus familiaris.
A short description of series [20]: Percent bioavailability was determined in rat by iv/po dose at 10 mg/kg. The class given is ADME, organism-based. The conditions noted are these: in vivo.
Series [21] is described as follows: Percent bioavailability was determined in monkey by iv/po dose at 10 mg/kg. Type of series: ADME, organism-based. The conditions noted are these: cercopithecidae, in vivo.
Series [22] in a line: Plasma half life was determined in dog by iv/po dose at 5 mg/kg. Type of series: ADME, organism-based, Canis lupus familiaris. Details: dose 5 mg/kg.
Series [23] is described as follows: Plasma half life was determined in rat by iv/po dose at 10 mg/kg. The class given is ADME, organism-based. Details: dose 10 mg/kg.
Series [24] can be described thus: Plasma half life was determined in dog by iv/po dose at 8.69 mg/kg. Details: dose 8.69 mg/kg. The class given is ADME, organism-based, Canis lupus familiaris.
Series [25] in a line: Maximum concentration was determined in dog by iv/po dose at 8.69 mg/kg. Type of series: ADME, organism-based, Canis lupus familiaris. Details: dose 8.69 mg/kg. To be noted: in vivo.
Series [26] is described as follows: Percent bioavailability was determined in dog by iv/po dose at 8.69 mg/kg. The class given is ADME, organism-based, Canis lupus familiaris. The conditions noted are these: in vivo.

Regarding `COc1cc2c(N3CCN(/C(S)=N\Cc4ccc(C(F)(F)F)nc4Cl)CC3)ncnc2cc1OCCN1CCCCC1`, the IC50 in [1] was 1400 nM; in series [2], 1130 nM; in [3], 6770 nM; in series [4], 790 nM; in series [5], 100 nM.
For `COc1cc2c(N3CCN(C(=S)Nc4ccc(Cl)nc4)CC3)ncnc2cc1OCCN1CCCCC1` the same measures were 510 nM, 890 nM, 19800 nM, 500 nM and 360 nM.
On to `COc1cc2c(N3CCN(/C(S)=N\Cc4ccc(C)o4)CC3)ncnc2cc1OCCCN1CCCCC1`, for which the IC50 is 90 nM in [1]; 80 nM in series [2]; more than 30000 nM in series [3]; 50 nM in series [4]; 80 nM in [5].
With `COc1cc2c(N3CCN(C(=S)Nc4ccncc4)CC3)ncnc2cc1OCCCN1CCCCC1`, the IC50 came out at 60 nM in series [1]; 220 nM in series [2]; 24200 nM in series [3]; 1850 nM in series [4]; 580 nM in [5].
On to `COc1cc2c(N3CCN(C(=S)NCc4ccc5c(c4)OCO5)CC3)ncnc2cc1OCCN1CCCCC1`, for which the AUC in series [6] worked out at 69 µg/h/mL. Besides, the IC50 was 120 nM in [1]; 20 nM in series [2]; 2910 nM in [3]; 60 nM in series [4]; 40 nM in series [5]. Also, the half-life in series [7] is 15.7 h; in series [8] it was 9.25 h; in series [14], 26.7 h. The maximum concentration (Cmax) in series [9] was found to be 146 ng/mL; in series [10], 456 ng/mL; in series [11] it was 92.5 ng/mL. Also, the values for the bioavailability in [12] and in series [13] were 39.1% and 102%, respectively.
As for `COc1cc2c(N3CCN(/C(S)=N\Cc4ccc(C)nc4)CC3)ncnc2cc1OCCCN1CCCCC1`, the concentration for half-maximal inhibition (IC50) in series [1] is 90 nM; in series [2] it was 140 nM; in [3] it was more than 30000 nM; in [4], 240 nM; in [5], 140 nM.
On to `COc1cc2c(N3CCN(C(=S)NCc4ccc(C(F)(F)F)nc4)CC3)ncnc2cc1OCCN1CCCCC1`, for which the 50% inhibitory concentration (IC50) in series [1] was 90 nM; in series [2], 1030 nM; in [3] it was more than 30000 nM; in [4] it was 240 nM; in [5], 150 nM.
As to `COc1cc2c(N3CCN(C(=S)NCc4cnc(C)cn4)CC3)ncnc2cc1OCCCN1CCCCC1`, the IC50 in [1] was 50 nM; in series [2], 140 nM; in series [3], more than 30000 nM; in series [4], 1520 nM; in [5] it was 1350 nM.
Consider `COc1cc2c(N3CCN(/C(S)=N\Cc4ccco4)CC3)ncnc2cc1OCCN1CCCC1`, for which the IC50 in series [1] is 310 nM; in series [2] it was 160 nM; in [3], more than 30000 nM; in [4] it was 1800 nM; in series [5] it was 290 nM.
Turning to `COc1cc2c(N3CCN(C(=S)NCc4ccc(Cl)nc4)CC3)ncnc2cc1OCCN1CCCCC1`, the IC50 in series [1] was 80 nM; in [2], 1010 nM; in series [3], more than 30000 nM; in series [4], 70 nM; in [5], 50 nM.
For `COc1cc2c(N3CCN(C(=S)Nc4ccc(-c5ccccc5)nc4)CC3)ncnc2cc1OCCCN1CCCCC1` the same measures were 270 nM, 360 nM, 5550 nM, 190 nM and 100 nM.
Consider `COc1cc2c(N3CCN(/C(S)=N\c4ccc(-c5ccccn5)cc4)CC3)ncnc2cc1OCCN1CCCCC1`, for which the Cmax came to 38.9 ng/mL in series [15], 34.1 ng/mL in series [16] and 143 ng/mL in [11]. Further, the IC50 in series [1] worked out at 150 nM; in series [2] it was 180 nM; in series [3], 3190 nM; in series [4] it was 100 nM; in series [5], 70 nM. The half-life in series [8] was 8.46 h; in [22], 7.58 h; in series [23], 17.4 h. Moreover, the AUC in [17] is 333 ng·h/mL; in series [18], 26.9 µg/h/mL. Besides, the bioavailability in series [19] came to 30.2%; in [20], 8.82%; in series [21], 68%.
Turning to `COc1cc2c(N3CCN(C(=S)NCc4cnc(C)cn4)CC3)ncnc2cc1OCCN1CCCCC1`, the AUC in [6] was 32.2 µg/h/mL. In addition, the IC50 in series [1] is 60 nM; in series [2] it was 50 nM; in [3], more than 30000 nM; in [4] it was 890 nM; in [5], 250 nM. Also, the half-life in [24] is 10.8 h; in series [8], 20.9 h; in series [14], 14.1 h. Besides, the Cmax in [9] stood at 239 ng/mL; in series [25] it was 297 ng/mL; in [11] it was 235 ng/mL. Moreover, the bioavailability in series [12] was found to be 13.7%; in [26], 38.8%.
Turning to `COc1cc2c(N3CCN(/C(S)=N\Cc4ccc(C(F)(F)F)nc4)CC3)c(C#N)cnc2cc1OCCCN1CCCCC1`, the IC50 in series [1] worked out at 10 nM; in series [2] it was 3 nM; in series [3], 40 nM; in [4] it was 20 nM; in series [5] it was 10 nM.
For the compound `COc1cc2c(N3CCN(/C(S)=N\c4ccncc4)CC3)ncnc2cc1OCCN1CCCCC1`, the IC50 in series [1] is 400 nM; in series [2], 240 nM; in series [3], more than 30000 nM; in [4], 2970 nM; in series [5], 980 nM.
